Source: patent US12577238B2, “Compositions and methods for modulating inflammatory and degenerative disorder” (University of Southern California, priority 2018, dated 2026)
“Also recorded” adds a separate entry of the source.

Experiments:
adult human synoviocytes = test: ERK and NF-κB downstream of OSM and IL-6 in synoviocytes; type: cell-based
Description: Accordingly, the ability of RCGD 423 to suppress signaling downstream of IL-6 and OSM in synoviocytes and peripheral blood mononuclear cells was assessed (FIG. 14).

OSMR and gp130 = molecular target: T1, OSMR and gp130 (Homo sapiens, UniProt P40189); test: Receptor competition, gp130-Flag pull-down, OSMR; type: cell-based; details: in the presence of OSM; IP-FLAG, WB-OSMR
T1 construct: FLAG; expressed in transfected cells; host or cells: adult human chondrocytes
T1 sequence (P40189 23-918): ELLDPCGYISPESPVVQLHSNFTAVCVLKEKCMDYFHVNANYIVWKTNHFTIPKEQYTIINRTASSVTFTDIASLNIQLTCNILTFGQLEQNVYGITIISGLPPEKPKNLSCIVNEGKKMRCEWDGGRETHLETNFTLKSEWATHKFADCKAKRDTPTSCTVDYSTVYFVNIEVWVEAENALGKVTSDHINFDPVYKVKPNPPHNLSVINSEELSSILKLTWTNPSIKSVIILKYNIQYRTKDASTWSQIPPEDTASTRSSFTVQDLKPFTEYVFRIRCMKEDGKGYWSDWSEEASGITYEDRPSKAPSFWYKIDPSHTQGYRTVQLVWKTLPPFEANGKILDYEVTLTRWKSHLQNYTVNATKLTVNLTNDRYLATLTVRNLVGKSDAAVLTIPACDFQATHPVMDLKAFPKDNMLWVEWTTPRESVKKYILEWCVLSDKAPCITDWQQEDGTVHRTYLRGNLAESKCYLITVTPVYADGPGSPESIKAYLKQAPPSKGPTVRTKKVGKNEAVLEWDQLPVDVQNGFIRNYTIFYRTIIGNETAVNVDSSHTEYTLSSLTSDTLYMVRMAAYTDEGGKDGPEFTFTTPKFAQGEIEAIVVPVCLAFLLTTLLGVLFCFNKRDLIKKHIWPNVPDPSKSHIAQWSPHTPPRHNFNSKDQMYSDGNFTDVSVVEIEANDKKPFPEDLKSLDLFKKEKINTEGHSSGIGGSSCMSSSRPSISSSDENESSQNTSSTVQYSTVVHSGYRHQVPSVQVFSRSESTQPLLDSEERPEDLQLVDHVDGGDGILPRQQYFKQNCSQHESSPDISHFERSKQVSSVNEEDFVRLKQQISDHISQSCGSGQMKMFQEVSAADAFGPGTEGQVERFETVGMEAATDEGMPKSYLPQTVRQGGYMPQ
Description: (§1) Adult human chondrocytes transfected with gp130-Flag were incubated with various concentrations of RCGD 423 in the presence of IL-6 or OSM; levels of immoprecipitated IL-6R or OSMR were used to calculate the dissociation constant (Kd).
Adult human chondrocytes; IP-FLAG AB (transfected with gp130 FLAG plasmid), WB-OSMR.
(§2) This property would be of great interest due to the pro-inflammatory and pro-catabolic effects of these cytokines in the joint space. […] To assess whether RCGD 423 could directly compete for gp130 occupancy, human adult articular chondrocytes were transfected with tagged gp130 and then pulled down associated proteins±RCGD 423 and/or IL-6.

[1] = Rat model of degenerative osteoarthritis (partial meniscectomy); type: in vivo
Description: In this system, 50% of the meniscus is surgically removed, promoting joint instability similar to what is commonly observed in human OA and degeneration of articular cartilage in 3-6 weeks (FIGS. 12A and B). RCGD 423 loaded onto PLGA (poly(lactic-co-glycolic acid)) microspheres for slow release, or microspheres alone, were injected into the joint space at the time of surgery and 3 weeks later.

[2] = tested on: adult pig articular chondrocytes; test: Western blot of signaling proteins (pSTAT3, MYC, MAPK, AKT, NF-κB) in pig articular chondrocytes; type: cell-based
Description: (A) Class 1 molecules (marked by red arrows) activate STAT3 and MYC signaling pathways wile Class 2 molecules (blue arrows) have no stimulatory effects on STAT3 and MYC signaling in chondrocytes as determined by western blot analysis. (B) Structures of the most prominent Class 1 and Class 2 molecules. […] All drugs were tested at 10 μM and assessed using Western Blot.
All drugs tested at 10 μM and assessed using Western Blot.
To begin to address the mechanism of action of RCGD 423, adult pig chondrocytes were incubated with the drug, IL-6 family cytokines or the pro-catabolic cytokines TNF-α and IL-1β and measured levels of various proteins downstream of these cytokines that are known to drive catabolic responses (FIG. 3).
Firstly, RCGD 423 was a hit from a library; this made the depth of the discovery surrounding the technology less comprehensive. Additionally, the physical properties of RCGD 423 (solubility, potency, functional groups) could be improved. Significant gains in these areas could potentially result in a first-in-class injectable for the treatment of post-traumatic OA. Moreover, the potential risks associated with promoting MYC stabilization and proliferation in gp130^+ cells as well as large increases in active STAT3 protein was of concern. […] These compounds were then screened in adult pig articular chondrocytes and cartilage explants, seeking compounds that could inhibit the catabolic effects of OSM but not drive increases in MYC and pSTAT3 protein levels. […] Together, these preliminary data identify CX-011 (B8) as a highly anti-inflammatory, anti-catabolic alternative to RCGD 423, with increased “drug-like” properties and reduced potential molecular liabilities.

gp130-IL-6R complexes = molecular target: T2, gp130-IL-6R complexes (Homo sapiens, UniProt P40189); test: Receptor competition, gp130-Flag pull-down, IL-6R; type: cell-based; details: in the presence of IL-6
T2 construct: Flag; expressed in transfected cells; host or cells: adult human articular chondrocytes
T2 sequence (P40189 23-918): T1 sequence (P40189 23-918)
Description: as §1, §2

gp130 = gp130 null Ba/F3 cells transfected with full-length gp130 or ΔD2 mutant; type: cell-based; details: WT gp130 vs ΔD2 mutant
Description: (§3) Based on this, it was hypothesized that RCGD 423 acts through gp130 by promoting stable homodimers in the absence of ligand. To confirm that RCGD 423 acts through gp130, the gp130 null cell line Ba/F3 cells was used. Ba/F3 cells were transfected with either full-length gp130 or a mutant gp130 lacking domain 2 (ΔD2), which contains the predicted binding site for RCGD 423 (FIG. 7). […] To verify the specificity of RCGD 423 in vivo, the compound was injected into rat knees in the presence of the small molecule gp130 inhibitor SC144 or a blocking antibody specific for domain 2 of gp130. […] The ability of RCGD 423 to act via inducing formation of gp130 homodimers was then examined by expressing tagged versions of gp130 in 293T cells. In this system, only homodimeric complexes can contain both tagged versions of gp130 (FIG. 9).

gp130 homodimers = molecular target: T3, gp130 homodimers (Homo sapiens, UniProt P40189); test: Tagged gp130 homodimer detection in 293T cells; type: cell-based; details: tagged gp130 in 293T cells
T3 construct: Myc; expressed in transfected cells; host or cells: 293T
T3 sequence (P40189 23-918) 1: T1 sequence (P40189 23-918)
T3 sequence (P40189 23-918) 2: T1 sequence (P40189 23-918)
Description: as §3

[3] = tested on: human fetal articular chondrocytes; test: Alkaline phosphatase / hypertrophy in fetal articular chondrocytes; type: cell-based

Brc1ccc(Nc2nc(-c3ccccc3)cs2)cc1 [RCGD 423]
increases in ERK and NF-κB levels downstream of OSM and IL-6 (adult human synoviocytes): inhibits increases in ERK and NF-κB levels
competition with OSMR for gp130 occupancy / OSMR-gp130 interaction (OSMR and gp130): directly competes with OSMR and IL-6R for gp130 occupancy
OARSI scores ([1]; 6 weeks, loaded onto PLGA microspheres, injected into joint space at surgery and 3 weeks later): highly significantly lower OARSI scores
expression of proteolytic (catabolic) enzymes after joint injury ([1]; rat OA model): decreased the expression of proteolytic enzymes; also recorded: decreased the levels of catabolic enzymes
formation, size and maturity of osteophytes ([1]; rats following partial meniscectomy): inhibited both the formation and maturity of osteophytes; also recorded: reduced the size and maturity of osteophytes
levels of active STAT3 (pSTAT3) and MYC proteins ([2]; Western blot, analogs at 10 μM): increased levels of active STAT3 and MYC proteins; also recorded: shared increase in active STAT3 (pSTAT3) and MYC proteins
activation of the MAPK, AKT and NF-κB pathways ([2]; adult pig articular chondrocytes): did not evidence the same result; also recorded: does not
gp130-IL-6R complexes / competition with IL-6R for gp130 occupancy (gp130-IL-6R complexes): gp130-IL-6R complexes were significantly reduced; also recorded: directly competes with OSMR and IL-6R for gp130 occupancy
gp130 signaling in gp130−/− Ba/F3 cells (gp130): full-length gp130 is required for the activity of RCGD 423; also recorded: only increase gp130 signaling in the presence of RCGD 423 and WT gp130
detection of gp130 homodimers (gp130-Myc) (gp130 homodimers): only in the presence of RCGD 423 could gp130 homodimers be detected; also recorded: gp130-Myc was only detectable in the presence of RCGD 423
increases in alkaline phosphatase, a marker of hypertrophy [3]: could prevent increases in alkaline phosphatase; also recorded: ability of the compound to inhibit hypertrophy was confirmed
